Laboratory results published in US5919457A, “TXU-5/B53-PAP antiviral biotherapeutic agent for the treatment of AIDS” (priority 1996, dated 1999).
pIC50: −log10 of the molar value. Where “and” joins values, the source holds several entries; their conditions need not be identical. Identical values can stand only once.

Legend:
[1] = system: HIV-1; design: species or system Hu-PBL-SCID mice; conditions: mouse, in vivo
Description: Mutant C.B 17 mice are used as model systems to examine the in vivo homing, engraftment, and growth patterns of normal and malignant human hematopoictic cells. Lapidot et al., Blood, 80, 32a (1992). […] Mosier et al., Science, 251, 791 (1991). […] Mosier et al., cited supra. Hu-PBL-SCID mice were generated as described previously. Mosier et al., cited supra. Non-toxic doses of TXU-5/B53-PAP (20%-50% of LD10) were administered intraperitoneally by injecting half of the total dose as a bolus and delivering the remainder i.p. over 2 weeks using Alzet micro-osmotic pumps.
Two weeks after infection with HIV-1, mice were electively killed and fresh peritoneal lavage cells as well as spleen cells were isolated, cocultured with phytohemagglutinin(PHA)-stimulated human peripheral blood mononuclear cells from an HIV-1 antibody negative donor, and culture supernatants were tested every 3-4 days for a maximum of 28 days for the presence of HIV-1 antigen with a commercially available enzyme immunoassay (Abbott Laboratories, North Chicago, Ill.) that detects primarily the core p24 antigen of HIV-1, as previously described. Goudsmit et al., J. Infectious Diseases, 155, 558 (1987). In addition to this culture method, DNA was also isolated from the peritoneal lavage cells as well as splenocytes for detection of HIV-1 DNA by PCR amplification of a 115 b.p. sequence in the gag region of the HIV-1 genome using two 29-base oligonucleotide primers, SK38 and SK39, that flank the region to be amplified. Ou C-Y et al., Science, 239, 295 (1988) DNA samples were also examined for the presence of human DNA by PCR amplification of a 110-bp fragment from the first exon of the human β-globin gene using two 20-base oligonucleotide primers, PCO3 and PCO4, that flank the region to be amplified, as previously described by Uckun et al. in Blood, 79, 2201 (1992).

[2] = system: HIV-1 isolate G-6912 (zidovudine-resistant); conditions: read-out: IC50 (concentration at which 50% of the reverse transcriptase activity is inhibited); cited from earlier work
[3] = system: HIV-1 isolate G-9106 (zidovudine-resistant); conditions: read-out: IC50 (concentration at which 50% of the reverse transcriptase activity is inhibited); cited from earlier work
[4] = system: HIV-1; design: species or system Hu-PBL-SCID mice; conditions: mouse, in vivo; remark: listed apart in the source

## Cc1cn([C@H]2C[C@H](N=[N+]=[N-])[C@@H](CO)O2)c(=O)[nH]c1=O [ZDV, zidovudine]
[1]
  Hu-PBL-SCID mice HIV-1 negative: 3 of 10
  PCR + Cx: mice PCR-positive and culture-positive (footnote c): 4/8 and 4
  PCR + Cx: mice PCR-positive but culture-negative (footnote b): 4/8 and 3
  PCR Only: PCR- mice/analyzed: 2/2
  Peritoneal Lavage Cells PCR+ (mice positive/analyzed): 7/10
  Peritoneal Lavage and Spleen Mixed Cx+ (cultures positive/analyzed): 4/8
  Spleen Cells PCR+ (mice positive/analyzed): 5/10
[2]
  pIC50: 5.82
[3]
  pIC50: 5.06
[4]
  gp120 on CD4+ lymphocytes from the peritoneal cavity (flow cytometry): presence of gpl120 on CD4+ cells
